Results from patent US20100233681A1, “METHOD FOR CELL BASED ASSAYS” (GE Healthcare UK Limited, priority 2006, published 2010).

Test system: U2OS osteosarcoma cells
Details: 250 ml of a 40 mM solution of histamine added after 20 seconds; control cells steady state 4500000 fluorescence units; 37° C.; FluoroMax-3 spectrofluorimeter
Protocol: i) U2OS osteosarcoma cells were grown on collagen coated CYTODEX™ 3 microcarriers (GE Healthcare) according to the Manufacturer's instructions in DMEM media (Invitrogen) supplemented with 10% (v/v) fetal bovine serum (Sigma). Once the culture had attained the required volume and cell density the cells on beads were loaded with 1 μM Fluo-4 (Invitrogen). Microcarriers were allowed to settle, the growth media removed and replaced with calcium flux buffer (145 mM sodium chloride, 5 mM potassium chloride, 1 mM magnesium sulphate, 10 mM HEPES, 10 mM D-glucose, 1 mM calcium chloride containing 1% BSA, 1 μM Fluo-4 (Invitrogen) and the cells incubated for 40 minutes at 37° C. Beads were allowed to settle, the calcium flux buffer removed and replaced with DMEM media supplemented with 10% (v/v) fetal bovine serum and glycerol (10% v/v final concentration) was added as a cryo-preservative. Fluo-4 loaded cells on beads were divided into aliquots of 8×10^5 cells and the 1 ml aliquots frozen to −140° C. at a freezing rate of 1° C./minute. ii) To set up the cell assay, vials of cryo-preserved cells were rapidly thawed in a water bath at 37° C. and cells on bead suspensions placed in 1.5 ml spectrofluorimeter cuvettes and equilibrated at 37° C. for 30 minutes. Fluorescence measurements were acquired over time using a FluoroMax-3 spectrofluorimeter using excitation and emission settings for Fluo-4.

**Q.** Which “Fluo-4 fluorescence after addition of histamine (intracellular calcium release)” value does the source give for NCCc1c[nH]cn1 [histamine] here?
**A.** 5170000 fluorescence units
